The target in this assay is T1, recombinant mouse NPY5-receptor (mNPY5) (Mus musculus, UniProt O70342).
T1 construct: The full-length cDNA encoding the mouse NPY5 (mNPY5) receptor was amplified from mouse brain cDNA; expressed in transfected cells; membrane preparation
T1 sequence (O70342 1-466): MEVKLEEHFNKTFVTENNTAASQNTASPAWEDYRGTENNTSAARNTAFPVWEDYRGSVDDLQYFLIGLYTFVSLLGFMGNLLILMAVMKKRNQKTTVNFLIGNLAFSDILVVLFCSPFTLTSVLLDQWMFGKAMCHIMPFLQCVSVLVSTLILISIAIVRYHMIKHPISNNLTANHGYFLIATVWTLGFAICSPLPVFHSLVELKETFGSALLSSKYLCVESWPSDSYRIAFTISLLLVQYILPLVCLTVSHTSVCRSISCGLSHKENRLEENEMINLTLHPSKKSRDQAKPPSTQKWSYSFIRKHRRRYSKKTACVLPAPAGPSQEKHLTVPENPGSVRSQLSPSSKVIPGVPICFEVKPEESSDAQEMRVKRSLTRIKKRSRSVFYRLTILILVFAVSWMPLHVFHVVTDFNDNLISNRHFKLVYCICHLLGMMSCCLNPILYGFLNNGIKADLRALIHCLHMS
Kind of assay: Radioligand competition binding. The settings on record: membranes of HEK293 cells expressing mNPY5; 100 pM [125I]labelled peptide YY (PYY); 1 h at 22° C.; read-out: NPY5-R (mouse) IC50. An excerpt:
The full-length cDNA encoding the mouse NPY5 (mNPY5) receptor was amplified from mouse brain cDNA using specific primers, designed based on the published sequence, and Pfu DNA-Polymerase. The amplification product was subcloned into the mammalian expression vector pcDNA3 using Eco RI and XhoI restriction sites. Positive clones were sequenced and one clone, encoding the published sequence was selected for generation of stable cell clones.
Human embryonic kidney 293 (HEK293) cells were transfected with 10 μg mNPY5 DNA using the lipofectamine reagent. Two days after transfection, geneticin selection (1 mg/ml) was initiated and several stable clones were isolated. One clone was further used for pharmacological characterization.
Human embryonic kidney 293 cells (HEK293), expressing recombinant mouse NPY5-receptor (mNPY5) were broken by three freeze/thawing cycles in hypotonic Tris buffer (5 mM, pH 7.4, 1 mM MgCl2), homogenized and centrifuged at 72,000×g for 15 min. The pellet was washed twice with 75 mM Tris buffer, pH 7.4, containing 25 mM MgCl2 and 250 mM sucrose, 0.1 mM phenylmethylsulfonylfluoride and 0.1 mM 1,10-pheneanthrolin, resuspended in the same buffer and stored in aliquots at −80° C. Protein was determined according to the method of Lowry using bovine serum albumine (BSA) as a standard. […]
With `Cc1ccccc1C(=O)c1cnc(NCC2CCN(S(=O)(=O)N(C)C)CC2)s1` [Example 18, 4-{[5-(2-Methyl-benzoyl)-thiazol-2-ylamino]-methyl}-piperidine-1-sulfonic acid dimethylamide], the IC50 stood at 0.85 nM.

On to `CCc1ccccc1C(=O)c1cnc(NC2CCN(S(=O)(=O)c3cccs3)CC2)s1` [Example 32, (2-Ethyl-phenyl)-{2-[1-(thiophene-2-sulfonyl)-piperidin-4-ylamino]-thiazol-5-yl}-methanone], for which the IC50 turned out to be 0.75 nM.

Regarding `Cc1ccccc1C(=O)c1cnc(NC2CCN(S(=O)(=O)c3cccs3)CC2)s1` [Example 41, {2-[1-(Thiophene-2-sulfonyl)-piperidin-4-ylamino]-thiazol-5-yl}-o-tolyl-methanone], the IC50 came out at 0.77 nM.

Source of the values: patent US7265109B2, “Thiazole derivatives” (Hoffmann-La Roche Inc., priority 2003, dated 2007).
